In patent US20160045513A1, “ISOXAZOLE COMPOUND FOR THE TREATMENT OF CANCER” (Novartis AG, priority 2007, published 2016):

Columns and labels:
Assay in all cases: clonogenic assay, human tumor xenografts in vitro
Type in all cases: cell-based
MEXF 672 = details: Melanoma, MEXF 672, Amelanotic melanoma, soft agar, read-out: IC50 (nM), colony formation
Experimental: (§1) The anticancer activity of 5-(2,4-Dihydroxy-5-isopropyl-phenyl)-4-(4-morpholin-4-ylmethyl-phenyl)-isoxazole-3-carboxylic acid ethylamide is evaluated in 30 human tumor xenografts in vitro using a clonogenic assay. In this assay, human cells derived from cancer patients are evaluated for the capacity of 5-(2,4-Dihydroxy-5-isopropyl-phenyl)-4-(4-morpholin-4-ylmethyl-phenyl)-isoxazole-3-carboxylic acid ethylamide to inhibit the formation of 3 dimensional colonies. […] The tumor xenografts which have never been cultured in cell culture plastic dishes are isolated from nude mice. Tumor cell suspensions are prepared and incubated in 24 well plates containing layers of soft agar. Under these conditions a special subpopulation of cells selectively grows to colonies. 5-(2,4-Dihydroxy-5-isopropyl-phenyl)-4-(4-morpholin-4-ylmethyl-phenyl)-isoxazole-3-carboxylic acid ethylamide was tested in 6 concentrations up to […]. The tumor test panel comprises 1 to 6 models of 10 different human tumor or cancer types, which were bladder cancer, colon, liver, non small cell lung (adeno, squamous epithelium and large cell), small cell lung, mammary, ovary, pancreatic, melanoma and pleuramesothelioma. Antitumor effects are recorded as inhibition of colony formation in relation to untreated controls. Further information on the method has been published (Burger et al., 2004; Fiebig et al., 2004; Smith et al., 2005).
(§2) The cells are continually exposed to 5-(2,4-Dihydroxy-5-isopropyl-phenyl)-4-(4-morpholin-4-ylmethyl-phenyl)-isoxazole-3-carboxylic acid ethylamide and colony formation is determined.

BXF 1228 = details: Bladder, BXF 1228, Transitional cell carcinoma, soft agar, read-out: IC50 (nM), colony formation
Experimental: as §1, §2

MAXF 1322 = details: Breast, MAXF 1322, Pap. adeno carcinoma, soft agar, read-out: IC50 (nM), colony formation
Experimental: as §1, §2

CXF 1103 = details: CXF1103, Colon, CXF 1103, Adeno carcinoma, soft agar, read-out: IC50 (nM), colony formation
Experimental: as §1, §2

LXFS 615 = details: Lung, small cell, LXFS 615, Small cell lung carcinoma, soft agar, read-out: IC50 (nM), colony formation
Experimental: as §1, §2

LXFS 650 = details: Lung, small cell, LXFS 650, Small cell lung carcinoma, soft agar, read-out: IC50 (nM), colony formation
Experimental: as §1, §2

LIXF 575 = details: Liver, LIXF 575, Hepatocellular carcinoma, soft agar, read-out: IC50 (nM), colony formation
Experimental: as §1, §2

OVXF 1544 = details: Ovary, OVXF 1544, Carcinoma, soft agar, read-out: IC50 (nM), colony formation
Experimental: as §1, §2

MEXF 462 = details: Melanoma, MEXF 462, Amelanotic melanoma, soft agar, read-out: IC50 (nM), colony formation
Experimental: as §1, §2

MEXF 1539 = details: Melanoma, MEXF 1539, Melanoma, soft agar, read-out: IC50 (nM), colony formation
Experimental: as §1, §2

BXF 1218 = details: Bladder, BXF 1218, Transitional cell carcinoma, soft agar, read-out: IC50 (nM), colony formation
Experimental: as §1, §2

MAXF 401 = details: MAXF401, Breast, MAXF 401, Pap. adeno carcinoma, soft agar, read-out: IC50 (nM), colony formation
Experimental: as §1, §2

LXFE 1422 = details: Lung, non-small cell, LXFE 1422, Squamous cell carcinoma, soft agar, read-out: IC50 (nM), colony formation
Experimental: as §1, §2

MEXF 535 = details: Melanoma, MEXF 535, Amelanotic melanoma, soft agar, read-out: IC50 (nM), colony formation
Experimental: as §1, §2

LXFA 983 = details: Lung, non-small cell, LXFA 983, Adeno carcinoma, soft agar, read-out: IC50 (nM), colony formation
Experimental: as §1, §2

CXF 1729 = details: Colon, CXF 1729, Carcinoma, soft agar, read-out: IC50 (nM), colony formation
Experimental: as §1, §2

MEXF 989 = details: Melanoma, MEXF 989, Amelanotic melanoma, soft agar, read-out: IC50 (nM), colony formation
Experimental: as §1, §2

PAXF 1657 = details: Pancreas, PAXF 1657, Adeno carcinoma, soft agar, read-out: IC50 (nM), colony formation
Experimental: as §1, §2

LXFL 1647 = details: Lung, non-small cell, LXFL 1647, Large cell lung carcinoma, soft agar, read-out: IC50 (nM), colony formation
Experimental: as §1, §2

PXF 1118 = details: Pleuramesothelioma, PXF 1118, Biphasic pleuramesothelioma, soft agar, read-out: IC50 (nM), colony formation
Experimental: as §1, §2

CXF 1784 = details: Colon, CXF 1784, Carcinoma, soft agar, read-out: IC50 (nM), colony formation
Experimental: as §1, §2

OVXF 1353 = details: Ovary, OVXF 1353, Adeno carcinoma, soft agar, read-out: IC50 (nM), colony formation
Experimental: as §1, §2

CXF 158 = details: CXF158, Colon, CXF 158, Adeno carcinoma, soft agar, read-out: IC50 (nM), colony formation
Experimental: as §1, §2

CXF 609 = details: Colon, CXF 609, Adeno carcinoma, soft agar, read-out: IC50 (nM), colony formation
Experimental: as §1, §2

**Q.** Which results are given for `CCNC(=O)c1noc(-c2cc(C(C)C)c(O)cc2O)c1-c1ccc(CN2CCOCC2)cc1` [AUY922, 5-(2,4-Dihydroxy-5-isopropyl-phenyl)-4-(4-morpholin-4-ylmethyl-phenyl)-isoxazole-3-carboxylic acid ethylamide]?
**A.** IC50 (MEXF 672): 18 nM; IC50 (BXF 1228): 630 nM; IC50 (MAXF 1322): 29 nM; IC50 (CXF 1103): 13 nM; IC50 (LXFS 615): 30 nM; IC50 (LXFS 650): 2 nM; IC50 (LIXF 575): 34 nM; IC50 (OVXF 1544): 53 nM; IC50 (MEXF 462): 24 nM; IC50 (MEXF 1539): 3 nM; IC50 (BXF 1218): 27 nM; IC50 (MAXF 401): 78 nM; IC50 (LXFE 1422): 48 nM; IC50 (MEXF 535): 43 nM; IC50 (LXFA 983): 126 nM; IC50 (CXF 1729): 467 nM; IC50 (MEXF 989): 2 nM; IC50 (PAXF 1657): 39 nM; IC50 (LXFL 1647): 34 nM; IC50 (PXF 1118): 223 nM; IC50 (CXF 1784): 418 nM; IC50 (OVXF 1353): 26 nM; IC50 (CXF 158): 369 nM; IC50 (CXF 609): 55 nM
